Laboratory results published in patent publication US4250170A, “Antibacterial agents Bu-2349A and B and method of using same” (Bristol-Myers Company, priority 1979, dated 1981).
Converted amounts (≈) assume the structure as drawn. Read-outs that look alike come from different tables or passages of the source.

Experiments:
[1] = system: Escherichia coli (Ec-49), APH(3')-2; test: MIC, two-fold agar dilution; assay type: cell-based; details: 18 h, Table 3, Mueller-Hinton agar, 10^-4 dilution, enzyme APH(3')-2
P. mirabilis A9554 = test: experimental infections in mice; assay type: in vivo; details: Proteus mirabilis, A9554, 120 h, im, 100 X LD50 ip challenge, 5 days, read-out: PD50 (median protective dose)
Description: (§1) The in vivo antibacterial activity of Bu-2349A was determined by experimental infections in mice. Mice were challenged via the intraperitoneal route with a 100 X LD50 dose of the pathogens in a 5% suspension of hog gastric mucin (American Laboratories, Omaha, Neb.). Bu-2349A was administered by the intramuscular route immediately after the bacterial challenge.

S. aureus Smith = test: experimental infections in mice; assay type: in vivo; details: Staphylococcus aureus, 120 h, im, 100 X LD50 ip challenge, 5 days, read-out: PD50 (median protective dose)
Description: as §1

P. vulgaris A9436 = test: experimental infections in mice; assay type: in vivo; details: Proteus vulgaris, A9436, 120 h, im, 100 X LD50 ip challenge, 5 days, read-out: PD50 (median protective dose)
Description: as §1

[2] = system: Propionibacterium acnes (Pc-102); test: MIC against anaerobic bacteria; assay type: cell-based; details: Cutibacterium acnes, 18 h; Table 4; GAM Medium, pH 7
Description: (§2) The minimum inhibitory concentrations (MIC) of Bu-2349A and B were determined against a wide variety of bacteria by the two-fold agar dilution method. Mueller-Hinton agar medium was generally used for the determination of bacterial MIC except for species of Streptococcus, Neisseria and Hemophilus for which Gonococcus agar medium (GC agar, Nissui Co., Tokyo) was used. Gifu anaerobe agar medium (GAM agar, Eiken Co., Tokyo) was used for anaerobic bacteria. The MIC's were determined after overnight incubation at 37° C. with an initial inoculum equivalent to a 10^-4 dilution of an 18-hour culture for the aerobic and anaerobic bacteria, except for Streptococcus, Neisseria and Hemophilus for which a 10^-2 dilution was used.

[3] = system: Clostridium chauvoei (Ch-1); test: MIC against anaerobic bacteria; assay type: cell-based; details: 18 h, Table 4, GAM Medium, pH 7
Description: as §2

[4] = system: Proteus stuartii (Ps-2), AAC(2'); test: MIC, two-fold agar dilution; assay type: cell-based; details: 18 h; Table 3; Mueller-Hinton agar, 10^-4 dilution; enzyme AAC(2')
[5] = system: Clostridium perfringens (Cp-1); test: microbe, parasite or virus in culture; assay type: cell-based; details: 18 h, pH 7
S. aureus (Sa-63) = test: MIC, agar dilution; assay type: cell-based; details: Staphylococcus aureus, 18 h
Description: as §2
(§3) The influence of inoculum size on MIC was tested on Mueller-Hinton agar using an inoculum of […], 10^-2 or 10^-4 dilution of the overnight culture of test organisms.
(§4) The effect of media pH on the MIC's of Bu-2349A was determined at three pH levels (6, 7 and 8) using Mueller-Hinton agar.
(§5) The media effect on the MIC's of Bu-2349A was tested using four kinds of assay media: Mueller-Hinton agar (MHA), nutrient agar (NA), heart infusion agar (HIA) and brain heart infusion agar (BHIA). The pH was adjusted at 7 and a 10^-4 dilution of overnight culture was used for the inoculum.

P. vulgaris (Pv-3) = test: MIC, agar dilution; assay type: cell-based; details: Proteus vulgaris, 18 h
Description: as §2, §3, §4, §5

[6] = system: Mycobacterium phlei D88 (Mp-1); test: MIC, two-fold agar dilution; assay type: cell-based; details: Mycolicibacterium phlei, 18 h; Table 3; Mueller-Hinton agar, 10^-4 dilution
[7] = system: Escherichia coli NIHJ (Ec-1); test: MIC, two-fold agar dilution; assay type: cell-based; details: 18 h, Table 3, Mueller-Hinton agar, 10^-4 dilution
Proteus vulgaris (Pv-1) = test: MIC, two-fold agar dilution; assay type: cell-based; details: 18 h, Table 3, Mueller-Hinton agar, 10^-4 dilution
[8] = system: gram-positive and gram-negative bacteria; test: in vitro antibacterial activity, overall statements; assay type: cell-based
Description: as §2, §3, §4, §5

[9] = system: Bacteroides fragilis (Bf-3); test: MIC against anaerobic bacteria; assay type: cell-based; details: 18 h, Table 4, GAM Medium, pH 7
[10] = system: Bacteroides fragilis (Bf-7); test: MIC against anaerobic bacteria; assay type: cell-based; details: 18 h, Table 4, GAM Medium, pH 7
[11] = system: Peptococcus aerogenes ATCC 14963 (Pe-101); test: MIC against anaerobic bacteria; assay type: cell-based; details: Peptoniphilus asaccharolyticus, ATCC14963, 18 h; Table 4; GAM Medium, pH 7
[12] = system: Escherichia coli (Ec-62), AAC(3)- 1; test: MIC, two-fold agar dilution; assay type: cell-based; details: 18 h, Table 3, Mueller-Hinton agar, 10^-4 dilution, enzyme AAC(3)- 1
[13] = system: Veillonella parvula ATCC 17745 (Vp-1); test: MIC against anaerobic bacteria; assay type: cell-based; details: ATCC17745, 18 h, Table 4, GAM Medium, pH 7
[14] = system: Streptococcus pyogenes (Sp-3); test: MIC, two-fold agar dilution; assay type: cell-based; details: 18 h, Table 3, GC agar, 10^-2 dilution
anaerobic organisms = test: in vitro activity against anaerobic bacteria, overall statement; assay type: cell-based; details: most of the anaerobic organisms tested
[15] = system: Mycobacterium ranae ATCC 110 (Mr-1); test: MIC, two-fold agar dilution; assay type: cell-based; details: ATCC110, 18 h, Table 3, Mueller-Hinton agar, 10^-4 dilution
[16] = system: Neisseria meningitidis (Nm-1); test: MIC, two-fold agar dilution; assay type: cell-based; details: 18 h, Table 3, GC agar, 10^-2 dilution
[17] = pH 6, Table 6, Mueller-Hinton Agar, 10^-4 dilution, pH 6, read-out: MIC
[18] = pH 7, Table 5, Mueller-Hinton Agar, pH 7, inoculum 10^-2 dil., read-out: MIC
[19] = pH 7, Table 5, Mueller-Hinton Agar, pH 7, inoculum 10^-4 dil., read-out: MIC
[20] = pH 7, Table 6, Mueller-Hinton Agar, 10^-4 dilution, pH 7, read-out: MIC
[21] = pH 7, Table 7, pH 7, 10^-4 dilution, BHIA, read-out: MIC
[22] = pH 7, Table 7, pH 7, 10^-4 dilution, HIA, read-out: MIC
[23] = pH 7, Table 7, pH 7, 10^-4 dilution, MHA, read-out: MIC
[24] = pH 7, Table 7, pH 7, 10^-4 dilution, NA, read-out: MIC
[25] = pH 8, Table 6, Mueller-Hinton Agar, 10^-4 dilution, pH 8, read-out: MIC

**Q.** Which results are given for `C=C1OC(OC2C(CO)OC(Oc3ccc(C(=O)NCCCNCCCCNCCCCN)cc3)C2O)C(O)C(OC2OC(CO)C(OC3OC(C)C(N)C(O)C3NC(=O)C(C)N)C(O)C2O)C1O` (stereo not shown) [Bu-2349A]?
**A.** MIC [1]: 1.6 µg/mL (≈ 1.62 µM); ED50 (P. mirabilis A9554): 16 mg/kg; ED50 (S. aureus Smith): 3.2 mg/kg; ED50 (P. vulgaris A9436): 12 mg/kg; MIC [2]: 12.5 µg/mL (≈ 12.6 µM); MIC [3]: > 100 µg/mL; MIC [4]: 1.6 µg/mL (≈ 1.62 µM); MIC [5]: > 100 µg/mL; MIC (S. aureus (Sa-63); [17]): > 50 µg/mL; MIC (S. aureus (Sa-63); pH 7): 12.5 µg/mL (≈ 12.6 µM); MIC (S. aureus (Sa-63); [18]): 6.3 µg/mL (≈ 6.36 µM); MIC (S. aureus (Sa-63); [19]): 6.3 µg/mL (≈ 6.36 µM); MIC (S. aureus (Sa-63); [20]): 6.3 µg/mL (≈ 6.36 µM); MIC (S. aureus (Sa-63); [21]): 6.3 µg/mL (≈ 6.36 µM); MIC (S. aureus (Sa-63); [22]): 3.1 µg/mL (≈ 3.13 µM); MIC (S. aureus (Sa-63); [23]): 6.3 µg/mL (≈ 6.36 µM); MIC (S. aureus (Sa-63); [24]): 6.3 µg/mL (≈ 6.36 µM); MIC (S. aureus (Sa-63); [25]): 3.1 µg/mL (≈ 3.13 µM); MIC (P. vulgaris (Pv-3); [17]): > 50 µg/mL; MIC (P. vulgaris (Pv-3); pH 7): 12.5 µg/mL (≈ 12.6 µM); MIC (P. vulgaris (Pv-3); [18]): 6.3 µg/mL (≈ 6.36 µM); MIC (P. vulgaris (Pv-3); [19]): 6.3 µg/mL (≈ 6.36 µM); MIC (P. vulgaris (Pv-3); [20]): 6.3 µg/mL (≈ 6.36 µM); MIC (P. vulgaris (Pv-3); [21]): 3.1 µg/mL (≈ 3.13 µM); MIC (P. vulgaris (Pv-3); [22]): 1.6 µg/mL (≈ 1.62 µM); MIC (P. vulgaris (Pv-3); [23]): 3.1 µg/mL (≈ 3.13 µM); MIC (P. vulgaris (Pv-3); [24]): 1.6 µg/mL (≈ 1.62 µM); MIC (P. vulgaris (Pv-3); [25]): 6.3 µg/mL (≈ 6.36 µM); MIC [6]: 3.1 µg/mL (≈ 3.13 µM); MIC [7]: 1.6 µg/mL (≈ 1.62 µM); MIC (Proteus vulgaris (Pv-1)): 1.6 µg/mL (≈ 1.62 µM); effect of inoculum size on antibiotic activity ([8]; Mueller-Hinton agar, 10^0, 10^-2 or 10^-4 dilution): no significant effect; effect of medium on activity ([8]; NA and HIA compared with MHA or BHIA, pH 7): higher activity in NA and HIA than in MHA or BHIA; inhibitory activity both in vitro and in vivo ([8]; gram-positive and gram-negative bacteria, including aminoglycoside-resistant bacteria, summary statement): marked inhibitory activity; antibacterial activity ([8]; including bacteria which produce aminoglycoside-modifying enzymes): active; effect of pH 6 on activity ([8]; pH 6 compared with pH 7): much reduced activity; effect of pH 8 on activity ([8]; pH 8 compared with pH 7): approximately twice as active; MIC [9]: > 100 µg/mL; MIC [10]: > 100 µg/mL; MIC [11]: > 100 µg/mL; MIC [12]: 1.6 µg/mL (≈ 1.62 µM); MIC [13]: > 100 µg/mL; MIC [14]: > 100 µg/mL; activity against anaerobic organisms (anaerobic organisms): inactive; MIC [15]: 3.1 µg/mL (≈ 3.13 µM); MIC [16]: > 100 µg/mL
